Test results taken from patent US20220389001A1, “ATF6 MODULATORS AND USES THEREOF” (Praxis Biotech LLC, priority 2019, published 2022).

Tests used:
ATF6 [1] = assay: ERSE ATF6-luciferase assay in presence of Tg-induced ER stress (U2-OS ATF6 TRE-luciferase reporter cells); format: cell-based, Human; conditions: Tg only = 100%; for ATF6 activity @ 1 μM [%] / activity at 1 µM: 1 μM test compound; for ATF6 activity @ 1 μM [%] / ATF6 activity @ 10 μM [%]: 8 hr; for ATF6 activity @ 10 μM [%] / activity at 10 µM: 10 μM test compound; for activity at 1 µM / activity at 10 µM: Homo sapiens, U2OS, 8 h
Procedure: (§1) To understand how exemplary compounds of the invention modulate the activity of ATF6 in absence or presence of endoplasmic reticulum (ER) stress, a Human bone osteosarcoma (U2-OS)-based TRE-luciferase reporter stable cell line was generated to determine the modulation of transcription of ATF6 target genes.
(§2) U2-OS cells were obtained from the American Type Culture Collection (ATCC HTB-96, ATCC Manassas, Va.) and were cultured with growing medium containing Dulbecco's Modified Eagle's Medium (DMEM) (Cat. No.: SH30023.02, HyClone) supplemented with fetal bovine serum (FBS) 10% (Cat. No.: 16000044, Gibco) and 1% penicillin-streptomycin antibiotic cocktail (Cat. No.: SV30010, Hyclone).
(§3) Cignal Lenti ATF6 luc reporter (Qiagen #CLS-6031L) was used to produce a stable cell line in U2-OS cells (U2-OS ATF6 TRE-luciferase reporter). The lenti ATF6 reporter is a preparation of replication incompetent, VSV-g pseudotyped lentivirus particles expressing the firefly luciferase gene under the control of a minimal (m)CMV promoter and tandem repeats of the ATF6 transcriptional response element (TRE). The number of response elements as well as the intervening sequence between response elements has been experimentally optimized to maximize the signal to noise ratio.
(§4) Exemplary compounds of the invention and reference compounds were prepared from powder as 10 mM stock solutions in dimethyl sulfoxide (DMSO; Cat. No. #D2650, Sigma Aldrich) and stored at −80° C. in presence of N2 neutral atmosphere.
(§5) For the primary screening, 40,000 U2-OS ATF6 TRE-luciferase reporter cells were plated in poly-D-lysine (Cat. No.: P2636, Sigma) pre-coated white 96-well plates (Thermo Scientific Nunc #136101) with 100 μL of growing medium. Cells were incubated in humidified chambers for 24 hr.
For testing exemplary compounds in presence of ER-stress, cells were pre-treated for 30 min with 50 μL growing medium containing either vehicle (DMSO), 1 or 10 μM test compound. After this pre-incubation, 50 μL of a solution containing 0.2 μM of the ER stress-inducer thapsigargin (Tg) was added to the appropriate wells. The Tg solution also contains vehicle or test compounds at 1 or 10 μM as indicated. The final concentration of DMSO in each well was kept at 0.3%. Plates were incubated for 8 hr in humidified chambers.
After the 8 hr incubation, plates were cooled down to room temperature for 10 min prior to the luciferase assays. Luciferase reactions were performed using Luciferase Assay System (Cat. No.: E4550, Promega). Briefly, each well was washed with 100 μl of PBS 1× and, then, 20 μl of lysis reagent was added into each well. Plates were shaken for 10 min and, then, 50 μl of Luciferase Assay Reagent was added to each well. Luminescence was determined by integration of 1 s with a gain of 110 in a Synergy 4 Microplate reader. All measurements were carried out in triplicate.
The average activity determined from the wells containing vehicle only (DMSO, 0% of ATF6 activity) was used as blank and subtracted from the rest of measurements. The average activity determined from the wells containing Tg only was used as 100% of ATF6 activity. The percentage of modulation of exemplary compounds was calculated by normalizing values to potential maximal activation with Tg.
ATF6 activities of exemplary compounds at 1 and 10 μM in presence Tg-induced ER stress tested in the U2-OS ATF6 TRE-luciferase reporter cells were determined and are shown in Table 2.

ATF6 [2] = assay: ERSE ATF6-luciferase assay in absence of ER stress (U2-OS ATF6 TRE-luciferase reporter cells); format: cell-based, Human; conditions: 8 hr, normalized to maximal activation with Tg; for ATF6 activity @ 1 μM- No Tg [%]: 1 μM test compound; for ATF6 activity @ 10 μM- No Tg [%]: 10 μM test compound
Procedure: as §1, §2, §3, §4, §5
For testing exemplary compounds in absence of ER-stress, cells were treated for 8 hr with 100 μL growing medium containing either vehicle (DMSO), 1 or 10 μM test compound or 0.1 μM Tg. The final concentration of DMSO in each well was kept at 0.3%. Plates were incubated in humidified chambers.
After 8 hr of incubation, plates were cooled down to room temperature for 10 min prior to luciferase assays. Luciferase reactions were performed as above. Luminescence was read by integration of 1 s with a gain of 110 in a Synergy 4 Microplate reader. All measurements were carried out in triplicate.
The average activity determined from the wells containing vehicle only (DMSO, 0% of ATF6 activity) was used as blank and subtracted from the rest of measurements. The percentage of modulation of exemplary compound was calculated by normalizing values to potential maximal activation with Tg.
ATF6 activities of exemplary compounds at 1 and 10 μM in absence of Tg-induced ER stress in the U2-OS ATF6 TRE-luciferase reporter cells were determined and are shown in Table 3.

SMILES	ATF6 activity @ 1 μM [%] (ATF6 [1])	ATF6 activity @ 10 μM [%] (ATF6 [1])	ATF6 activity @ 1 μM- No Tg [%] (ATF6 [2])	ATF6 activity @ 10 μM- No Tg [%] (ATF6 [2])	activity at 1 µM (ATF6 [1])	activity at 10 µM (ATF6 [1])
CC(c1c(F)cccc1Cl)n1cc(NC(=O)c2cc(-c3ccco3)on2)cn1 (single isomer, unassigned) [Compound 1-15, N-(1-(1-(2-chloro-6-fluorophenyl)ethyl)-1H-pyrazol-4-yl)-5-(furan-2-yl)isoxazole-3-carboxamide]	+ (+ refers to 100% < % activity < 125% at 1 or 10 μM)	+ (+ refers to 100% < % activity < 125% at 1 or 10 μM)	+ (+ refers to 0% < % activity < 25% at 1 or 10 μM test compound)	+ (+ refers to 0% < % activity < 25% at 1 or 10 μM test compound)		
CC(c1c(F)cccc1Cl)n1cc(NC(=O)c2cc(-c3ccco3)on2)cn1 (single isomer, unassigned) [Compound 1-14, N-(1-(1-(2-chloro-6-fluorophenyl)ethyl)-1H-pyrazol-4-yl)-5-(furan-2-yl)isoxazole-3-carboxamide]	+++ (+++ refers to >150% at 1 or 10 μM test compound)	+++ (+++ refers to >150% at 1 or 10 μM test compound)	+ (+ refers to 0% < % activity < 25% at 1 or 10 μM test compound)	+ (+ refers to 0% < % activity < 25% at 1 or 10 μM test compound)		
CC(c1ccc(F)cc1Cl)n1cc(NC(=O)c2cc(-c3ccco3)on2)cn1 (centres unmarked) [Compound 1-6, N-(1-(1-(2-chloro-4-fluorophenyl)ethyl)-1H-pyrazol-4-yl)-5-(furan-2-yl)isoxazole-3-carboxamide]					100 to 125%	75 to 100%
CC(c1c(F)cccc1Cl)n1cc(NC(=O)c2cc(-c3ccco3)on2)cn1 (centres unmarked) [Compound 1-4, N-(1-(1-(2-chloro-6-fluorophenyl)ethyl)-1H-pyrazol-4-yl)-5-(furan-2-yl)isoxazole-3-carboxamide]					> 150%	> 150%
O=C(Nc1cnn(C2CCCc3ccccc32)c1)c1cc(-c2ccco2)on1 (centres unmarked) [Compound 1-3, 5-(furan-2-yl)-N-(1-(1,2,3,4-tetrahydronaphthalen-1-yl)-1H-pyrazol-4-yl)isoxazole-3-carboxamide]					100 to 125%	125 to 150%
CC(c1ccc(F)cc1F)n1cc(NC(=O)c2cc(-c3ccco3)on2)cn1 (single isomer, unassigned) [Compound 1-17, N-(1-(1-(2,4-difluorophenyl)ethyl)-1H-pyrazol-4-yl)-5-(furan-2-yl)isoxazole-3-carboxamide]	+ (+ refers to 100% < % activity < 125% at 1 or 10 μM)	+ (+ refers to 100% < % activity < 125% at 1 or 10 μM)	+ (+ refers to 0% < % activity < 25% at 1 or 10 μM test compound)	+ (+ refers to 0% < % activity < 25% at 1 or 10 μM test compound)		
CC(c1ccc(F)cc1F)n1cc(NC(=O)c2cc(-c3ccco3)on2)cn1 (single isomer, unassigned) [Compound 1-16, N-(1-(1-(2,4-difluorophenyl)ethyl)-1H-pyrazol-4-yl)-5-(furan-2-yl)isoxazole-3-carboxamide]		++ (++ refers to 125% < % activity < 150% at 1 or 10 μM test compound)	+ (+ refers to 0% < % activity < 25% at 1 or 10 μM test compound)	+ (+ refers to 0% < % activity < 25% at 1 or 10 μM test compound)	100 to 125%	
CC(c1c(Cl)cccc1Cl)n1cc(NC(=O)c2cc(-c3ccco3)on2)cn1 (centres unmarked) [Compound 1-1, N-(1-(1-(2,6-dichlorophenyl)ethyl)-1H-pyrazol-4-yl)-5-(furan-2-yl)isoxazole-3-carboxamide]			+ (+ refers to 0% < % activity < 25% at 1 or 10 μM test compound)	+ (+ refers to 0% < % activity < 25% at 1 or 10 μM test compound)		
CC(c1ccc(C(F)(F)F)cc1C(F)(F)F)n1cc(NC(=O)c2cc(-c3cnccn3)no2)cn1 (single isomer, unassigned) [Compound 1-25, N-(1-(1-(2,4-bis(trifluoromethyl)phenyl)ethyl)-1H-pyrazol-4-yl)-3-(pyrazin-2-yl)isoxazole-5-carboxamide]	- (- refers to 75% < % activity < 100% at 1 or 10 μM)	- (- refers to 75% < % activity < 100% at 1 or 10 μM)				
O=C(Nc1cnn(C2CCc3cc(C(F)(F)F)ccc32)c1)c1cc(-c2cnccn2)on1 (centres unmarked) [Compound 1-12, 5-(pyrazin-2-yl)-N-(1-(5-(trifluoromethyl)-2,3-dihydro-1H-inden-1-yl)-1H-pyrazol-4-yl)isoxazole-3-carboxamide]					75 to 100%	75 to 100%
CC(c1c(Cl)cccc1Cl)n1cc(NC(=O)c2cc(-c3cccs3)on2)cn1 (centres unmarked) [Compound 1-13, N-(1-(1-(2,6-dichlorophenyl)ethyl)-1H-pyrazol-4-yl)-5-(thiophen-2-yl)isoxazole-3-carboxamide]			+ (+ refers to 0% < % activity < 25% at 1 or 10 μM test compound)	+ (+ refers to 0% < % activity < 25% at 1 or 10 μM test compound)	75 to 100%	100 to 125%
O=C(Nc1cnn(Cc2ccc(C(F)(F)F)cc2C(F)(F)F)c1)c1cc(-c2ccco2)on1 [Ceapin-A7, reference compound]	--- (--- refers to <50% at 1 or 10 μM test compound)	--- (--- refers to <50% at 1 or 10 μM test compound)				
CC(c1ccc(C(F)(F)F)cc1C(F)(F)F)n1cc(NC(=O)c2cc(-c3cnccn3)no2)cn1 (centres unmarked) [Compound 1-11, N-(1-(1-(2,4-bis(trifluoromethyl)phenyl)ethyl)-1H-pyrazol-4-yl)-3-(pyrazin-2-yl)isoxazole-5-carboxamide]					50 to 75%	50 to 75%
CC(c1ccc(C(F)(F)F)cc1C(F)(F)F)n1cc(NC(=O)c2cc(-c3cnccn3)no2)cn1 (single isomer, unassigned) [Compound 1-26, N-(1-(1-(2,4-bis(trifluoromethyl)phenyl)ethyl)-1H-pyrazol-4-yl)-3-(pyrazin-2-yl)isoxazole-5-carboxamide]	--- (--- refers to <50% at 1 or 10 μM test compound)	--- (--- refers to <50% at 1 or 10 μM test compound)				
CC(c1ccc(F)cc1F)n1cc(NC(=O)c2cc(-c3ccco3)on2)cn1 (centres unmarked) [Compound 1-5, N-(1-(1-(2,4-difluorophenyl)ethyl)-1H-pyrazol-4-yl)-5-(furan-2-yl)isoxazole-3-carboxamide]					100 to 125%	> 150%
Cc1c(NC(=O)c2cc(-c3ccco3)on2)cnn1C(C)c1c(Cl)cccc1Cl (centres unmarked) [Compound 1-22, N-(1-(1-(2,6-dichlorophenyl)ethyl)-5-methyl-1H-pyrazol-4-yl)-5-(furan-2-yl)isoxazole-3-carboxamide]			+ (+ refers to 0% < % activity < 25% at 1 or 10 μM test compound)	+ (+ refers to 0% < % activity < 25% at 1 or 10 μM test compound)	75 to 100%	100 to 125%
